Key:
MDA-MB-468 cells [1] = assay: Pulse-chase measurement of protein degradation (35S-Met); assay type: cell-based, human
Method: FIG. 3. EGFR enhances proteasomal degradation and promotes K48-linked ubiquitin conjugates. (A). MDA-MB-468 cells were serum starved for 24 hours and labeled with ^35S-Met for 24 hours. […] The rate of protein degradation was shown as the fraction of radiolabelled protein remaining over time. Data were mean±SD of three independent experiments. (**: p<0.01, two-way ANOVA test). (B and C). MDA-MB-468 cells were treated as in (A), except that 20 nM bortezomib (B) or 10 μM chloroquine (C) was present in the chase media. Data were mean±SD of three independent experiments. (**: p<0.01, two-way ANOVA test). (D). […] Total Ub conjugates, K48-linked conjugates, and K63-linked conjugates were determined by Western blot, and their intensities were quantitated and normalized to that of β-actin and then to time 0 in each group. Data were mean±SD of three independent experiments. (**: p<0.01, Student's t-test). (E). […] Total Ub conjugates, K48-linked conjugates, and K63-linked conjugates were determined by Western blot, and their intensities were quantitated and normalized to that of β-actin and then to control in each group. Data were mean±SD of three independent experiments. (**: p<0.01, Student's t-test). (F). HEK293 cells were transfected with empty vector (Ctrl) or constitutively-active EGFR (encoding the T790M/L858R mutation) and treated with AG-1478. Total Ub conjugates, K48-linked conjugates, and K63-linked conjugates were determined by Western blot, and their intensities were quantitated and normalized to that of β-actin and then to time 0 in each group. Data were mean±SD of three independent experiments. (**: p<0.01, Student's t-test).
FIG. 4. EGF treatment raises the cellular content of Ub conjugates independent of EGFR ubiquitination and new protein synthesis. (A-D). […] Total Ub conjugates (A), K48-linked conjugates (B), and K63-linked conjugates were determined by Western Blot, and their intensities were quantitated and normalized to that of β-actin and then to control at time 0 in each group (D). Data were mean±SD of three independent experiments. (**: p<0.01, Student's t-test). (E). […] At different time points, cells were harvested, and radiolabeled protein remaining in the cell was measured. […] Cells were treated as illustrated in (A), and the radioactivity of remaining in cells was measured. […] The levels of Ub conjugates and β-actin were determined by Western blot (C) and quantitated (D). […]
To assess protein degradation, cells were starved for 30 minutes with methionine-free DMEM and pulse labelled for 16-24 hours with 0.5 mL of medium containing 0.1 mCi of ^35S-Met. […] After washing in cold PBS, cells were treated in chase medium for various times, and the remaining radioactivity in cells was measured as described elsewhere (Taelman et al., Cell, 143:1136-1148 (2010)). […]

NIH-3T3 cells = assay: Western blot of Ub conjugates after FGFb; assay type: cell-based, mouse
Method: FIG. 6. FGFR activation increases cellular Ub conjugates. (A to D). NIH-3T3 cells were serum starved for 48 hours and then treated with 20 ng/mL FGFb and harvested at different time course. Total Ub conjugates (A), K48-linked conjugates (B), and K63-linked conjugates (C) were determined by Western blot, and their intensities were quantitated and normalized to that of β-actin and then to time 0 in each group (D). Data were mean±SD of three independent experiments. (**: p<0.01, Student's t-test). (E to H). HEK293 cells were transfected with empty vector (Ctrl), FGFR2 wide type, or FGFR2 kinase dead mutant (KR). Total Ub conjugates (E), K48-linked conjugates (F), and K63-linked conjugates (G) were determined by Western blot, and their intensities were quantitated and normalized to that of β-actin and then to control in each group (H). Data were mean±SD of three independent experiments. (**: p<0.01, Student's t-test). (I to L). NIH-3T3 cells were serum starved for 48 hours and then treated with vehicle, FGFb, or FGFb and FGF inhibitor TKI-258. Total Ub conjugates (I), K48-linked conjugates (J), and K63-linked conjugates (K) were determined by Western blot, and their intensities were quantitated and normalized to that of β-actin and then to control in each group (L). Data were mean±SD of three independent experiments. (**: p<0.01, Student's t-test).
Cell lysates were prepared, and immunoprecipitation and immunoblotting were performed as described elsewhere (Deng et al., Mol. Cell, 61:614-624 (2016)). In brief, cells were lysed with NETN buffer (20 mM Tris-HCl, pH 8.0, 100 mM NaCl, 1 mM EDTA, 0.5% Nonidet P-40) containing 50 mM β-glycerophosphate, 10 mM NaF, and 1 mg/mL each of pepstatin A and aprotinin. Whole cell lysates were centrifuged at 12000 rpm for 15 minutes. Whole cell lysates were incubated with 2 of antibody and protein A or protein G Sepharose beads (Amersham Biosciences) for 2 hours or overnight at 4° C. The immunocomplexes were then washed with NETN buffer for three times and separated by SDS-PAGE. Immunoblotting was performed following standard procedures. […]

MDA-MB-468 cells [2] = assay: Western blot of total, K48-linked and K63-linked Ub conjugates after EGF; assay type: cell-based, human
Method: FIG. 3. EGFR enhances proteasomal degradation and promotes K48-linked ubiquitin conjugates. (A). MDA-MB-468 cells were serum starved for 24 hours and labeled with ^35S-Met for 24 hours. […] The rate of protein degradation was shown as the fraction of radiolabelled protein remaining over time. Data were mean±SD of three independent experiments. (**: p<0.01, two-way ANOVA test). (B and C). MDA-MB-468 cells were treated as in (A), except that 20 nM bortezomib (B) or 10 μM chloroquine (C) was present in the chase media. Data were mean±SD of three independent experiments. (**: p<0.01, two-way ANOVA test). (D). […] Total Ub conjugates, K48-linked conjugates, and K63-linked conjugates were determined by Western blot, and their intensities were quantitated and normalized to that of β-actin and then to time 0 in each group. Data were mean±SD of three independent experiments. (**: p<0.01, Student's t-test). (E). […] Total Ub conjugates, K48-linked conjugates, and K63-linked conjugates were determined by Western blot, and their intensities were quantitated and normalized to that of β-actin and then to control in each group. Data were mean±SD of three independent experiments. […] Total Ub conjugates, K48-linked conjugates, and K63-linked conjugates were determined by Western blot, and their intensities were quantitated and normalized to that of β-actin and then to time 0 in each group. […]

MDA-MB-468 cells [3] = assay: Immunoblot of Ub Y59 phosphorylation with anti-pY59 antibody; assay type: cell-based, human; conditions: 20 ng EGF, time dependent; FIG. 7D
Method: FIG. 7. EGFR phosphorylates ubiquitin. (A). An in vitro kinase assay was performed at 30° C. for 1 hour in the presence of EGFR and different tetra-Ub chain or free Ub. The gels were subjected to western blot with anti-phosphor-tyrosine antibody (upper panel) or Coomassie brilliant blue (CBB) staining (lower panel). (B). Lysates from EGF treated cells was trypsinized and subjected to liquid chromatography tandem mass spectrometry (LC-MS/MS) analysis. (C). […] Absolute quantification of […] and TLSD(pY)[…] from control of EGF treated cells were quantified by Parallel Reaction Monitoring. Data were mean±SD of three independent experiments. (**: p<0.01, Student's t-test). […] Cell lysates were blotted with the anti-pY59 antibody. (E). […] Cell lysates were blotted with antibodies against pY59 and β-actin. (F). WT Ub- and Ub Y59F-replacement cells were serum starved and induced with DOX for 72 hours to replace endogenous Ub with WT Ub or Ub Y59F. […] Cell lysates were blotted with antibodies against pY59 and β-actin.
Cell lysates were prepared, and immunoprecipitation and immunoblotting were performed as described elsewhere (Deng et al., Mol. Cell, 61:614-624 (2016)). In brief, cells were lysed with NETN buffer (20 mM Tris-HCl, pH 8.0, 100 mM NaCl, 1 mM EDTA, 0.5% Nonidet P-40) containing 50 mM β-glycerophosphate, 10 mM NaF, and 1 mg/mL each of pepstatin A and aprotinin. […]

[4] = tested on: NIH-3T3 cells transformed by EGFR L858R; assay: Cell proliferation and MTS assay; assay type: cell-based, mouse; conditions: EGFR L858R transformed cells compared to Ctrl cells; FIG. 14G
Method: FIG. 14. […] (A-D). NIH-3T3 cells were infected with virus expressing EGFR DM mutant. Cells were harvested at different times after infection. Total Ub conjugates (A), K48-linked conjugates (B), and K63-linked conjugates (C) were determined by Western blot, and their intensities were quantitated and normalized to that of β-actin. Data were mean±SD of three independent experiments. (**: p<0.01, Student's t-test). (E) NIH-3T3 cells were infected with virus expressing EGFR DM mutant. Cells were harvested at different times after infection. Cell lysates were blotted with an anti-pY59 antibody. (F). NIH-3T3 stably expressing empty vector (Ctrl) or EGFR L858R mutant were serum starved for 48 hours and were labeled with ^35S Met for 24 hours in the absence of serum. […] At different time points, cells were harvested, and radiolabeled protein remaining in the cell was measured. The rate of protein degradation was shown as the fraction of radiolabeled protein remaining over time. […]
90 μL of cells (5×10^5 cells/mL) were plated into each well of 96-well plates (Corning, Lowell, Mass.; MacLean et al., Bioinformatics, 26:966-968 (2010)) and were treated with 10 μL of bortezomib at the final concentrations of 0, 0.0457, 0.1372, 0.4115, 1.2346, 3.7037, 11.1111, 33.3333 and 100 nM. […] Plates were then read in a microplate reader at absorbance of OD 490 (Tecan AG, Switzerland).

C[C@@H]1C[C@@H]([C@H](O)CC2CC(=O)NC(=O)C2)C(=O)[C@@H](C)C1 [cycloheximide]
proteasomal proteolysis (MDA-MB-468 cells [1]; 100 μg/mL cycloheximide by itself, chloroquine in chase, FIG. 4G): reduced

FGFb: FGF basic, growth factor used to activate FGFR
increase in total content of ubiquitinated proteins and K48-linked Ub conjugates (NIH-3T3 cells; 20 ng/mL FGFb for 20 minutes, FIGS. 6A-D): 50%
treatment time to maximal increase in Ub conjugates (NIH-3T3 cells; 20 ng/mL FGFb, FIGS. 6A-D): 40 min

CC(O)C(=O)O.CN1CCN(c2ccc3nc(-c4c(N)c5c(F)cccc5[nH]c4=O)[nH]c3c2)CC1 [TKI-258, Dovitinib (TKI 258)]
effect on increase in Ub conjugates induced by FGFb (NIH-3T3 cells; FGFb and TKI-258, FIGS. 6I-L): blocked

EGF: growth factor used to activate EGFR (NSDSECPLSHDGYCLHDGVCMYIEALDKYACNCVVGYIGERCQYRDLKWWELR; Epidermal growth factor; UniProt P01133 971-1023, looked up)
cellular ubiquitin conjugates (MDA-MB-468 cells [2]; 20 ng EGF, time dependent, FIG. 3D): significantly higher
rate of protein degradation (MDA-MB-468 cells [1]; EGF in chase medium, FIG. 3A): decrease
lysosome-dependent degradation (MDA-MB-468 cells [1]; EGF, in the presence of 20 nM bortezomib, FIG. 3B): inhibited
proteasome-mediated proteolysis (MDA-MB-468 cells [1]; EGF, in the presence of 10 μM chloroquine, FIG. 3C): increased dramatically
phosphorylation of Ub (MDA-MB-468 cells [3]): dramatic increase

N#CC(=C(/N)Sc1ccccc1N)/C(C#N)=C(\N)Sc1ccccc1N [U0126]
effect on stimulation of Ub chain assembly by EGF (MDA-MB-468 cells [2]; pretreated 12 hours before EGF treatment, FIGS. 5B-E): did not affect

CC(C)C[C@H](NC(=O)[C@H](Cc1ccccc1)NC(=O)c1cnccn1)B(O)O [bortezomib]
bortezomib sensitivity [4]: much higher
